Measurements taken from patent US11311576B2, “Methods of use for CAR T cells” (Seattle Children's Hospital, priority 2018, dated 2022).

Assays:
MDA-MB-231 tumors = experiment: EC17/E2-CAR T-cell therapy in NSG mice bearing MDA-MB-231 tumors; format: in vivo; conditions: 10 million E2 CAR-T cells, EC17 500 nmol/kg days 2 and 10, versus no EC17
Procedure: MDA-MB-231 tumor cells were grown in folate-deficient RPMI 1640 with 5-10% FBS at 37° C. in a 5% CO2 humidified atmosphere. MDA-MB-231 tumor cells were inoculated subcutaneously at 2.5×10^6 cells per animal. Only […] mice were inoculated and the remaining 22 mice were kept tumor-free.
EGFRt-sorted anti-FITC E2 scFv-CAR T cells were frozen in a T-cell freezing medium. Vials of frozen CAR-T cells were immediately stored at −80° C. The CAR-T cells were quickly thawed at 37° C., washed twice with PBS, and used for animal injection at 10 million viable EGFRt+E2 CAR-T cells (CD4/CD8 at ˜1:1) per animal. […]
Whole blood cell analysis: Plasma was removed from predetermined volumes of whole EDTA treated blood and RBCs were lysed with RBC lysis solution. […] Determination of the concentration of CAR T cells in each blood sample was calculated according to Invitrogen's instructions. CAR T cells were identified as human CD3ε+ EGFRt+ events and easily distinguished and counted using the Kaluza™ flow cytometry software. The number of CAR T cells in the circulation of each infused mouse was then represented on the graphs as the total number of CAR T cells per 100 μL of whole blood analyzed. Statistical significance was determined by utilizing an unpaired, two-tailed, students t30 test with significance set at p<0.05. […]

HOS-FRα tumor = experiment: CRS toxicity and sodium fluorescein rescue in HOS-FRα tumor-bearing mice; format: in vivo; conditions: ~2.5 million CD8 and ~33 million CD4 E2 CAR-T cells; days 4 and 11, after EC17 500 and 100 nmol/kg on days 3 and 10
Procedure: All animal care and use were performed according to NIH guidelines and in compliance with protocols approved by the Purdue University Animal Use and Care Committee. Female 4 to 5-week-old NOD/SCID gamma (NSG™) mice (stock number: 005557) were purchased from The Jackson Laboratory (Bar Harbor, Me.). Unless specifically indicated, all animals were maintained on a FA-deficient diet (TestDiet, St. Louis, Mo.) upon arrival and throughout the study. To establish subcutaneous xenografts, MDA-MB-231 and HOS-FRα were implanted in the right flank region at 2.5×10^6 and 1×10^6 cells per animal, respectively. For intravenous xenografts, THP1-FRb cells were inoculated at 5×10^6 cells per animal. Subcutaneous tumors were measured 2-3 times per week with a caliper and calculated using the ellipsoidal formula […]. […] All animal doses (CAR-T cells, EC17, sodium fluorescein) were given intravenously.
Depending on the CAR-T cell dose and how EC17 is administered, tumor-bearing mice receiving FITC-specific CAR-T cells can experience severe CRS and varying degrees of body weight loss. […] On the days immediately following each EC17 dose, animals were scored and rescue agents such as sodium fluorescein, folic acid and leucovorin were used to mitigate CRS toxicity. […]

Question: Which “cytokine levels (IL2, IFN-γ, IL-10) in plasma” value (MDA-MB-231 tumors) does the source give for `NC1=NC2N=CC(CNc3ccc(C(=O)N[C@@H](CCC(=O)NCCNC(=S)Nc4ccc(-c5c6ccc(=O)cc-6oc6cc(O)ccc56)c(C(=O)O)c4)C(=O)O)cc3)=NC2C(=O)N1` (some centres unmarked) [EC17, FA-(g)-ethylenediamine-FITC] here?
Answer: Its value is “all increased”.

Question: And the CRS grade (HOS-FRα tumor)?
Answer: The CRS grade was 1-2.
